Source: patent US4162305A, “Antibiotic XK-99 and process for production thereof” (Abbott Laboratories, priority 1977, dated 1979)
Converted amounts (≈) assume the structure as drawn. Where two headings read alike, the source gives them in different places. Numbered stars: 1 amine (or outer) side, 2 acyl side, 3 side chain; on linkers, the order of the positions; unused ones are H or OH. Bridge positions count the residues as written; N and C are the ends. Square brackets hold non-standard residues; d marks the D form. Peptide text beside a SMILES is read from it. I, II: the chains in the order shown. Actinocin(9to1) = Cc1c2oc3c(C)ccc(C(=O)[*:1])c3nc-2c(C(=O)[*:2])c(N)c1=O; NMeV = CN[C@H](C(=O)O)C(C)C; Sar = CNCC(=O)O

Key:
[1] = system: Staphylococcus aureus; experiment: Comparative antibacterial activity (MIC), agar dilution method, measured simultaneously; type: cell-based; conditions: for Antibacterial activity [C], ratio of [A] to [B]: MIC Staphylococcus aureus / MIC Bacillus subtilis; for MIC / Antibacterial activity [A] (minimum inhibition concentration, MIC): Staphylococcus aureus; for MIC: read-out: Antibacterial activity [A] (minimum inhibition concentration, MIC)
Method: (§1) A comparative study of XK-99 with these antibiotics was conducted according to several procedures.
(§2) ^1 Antibacterial activities (minimum inhibition concentration, MIC,
(§3) γ/ml) of the individual antibiotics measured simultaneously
according to agar dilution method against [A] Staphylococcus aureus and […]

[2] = system: Bacillus subtilis; experiment: as above; type: cell-based; conditions: for MIC: read-out: Antibacterial activity [B] (minimum inhibition concentration, MIC)
Method: as §1, §2, §3
according to agar dilution method against [A] Staphylococcus aureus and
[B]Bacillus subtilis, and [C] ratio of [A] to
^2 Rf values of the individual antibiotics on paper chromatography, […]

[3] = agar dilution method, measured simultaneously

| Compound | Antibacterial activity [C], ratio of [A] to [B] [1] | MIC [1] [µg/mL] | MIC [2] [µg/mL] | MIC [1, 3] [µg/mL] | MIC [2, 3] [µg/mL] | Antibacterial activity [A] (minimum inhibition concentration, MIC) [1, 3] [µg/mL] | Antibacterial activity [B] (minimum inhibition concentration, MIC) [2, 3] [µg/mL] |
| --- | --- | --- | --- | --- | --- | --- | --- |
| Cc1c2oc3c(C)ccc(C(=O)N[C@@H]4C(=O)N[C@H](C(C)C)C(=O)N5CCC[C@H]5C(=O)N(C)CC(=O)N(C)[C@@H](C(C)C)C(=O)O[C@@H]4C)c3nc-2c(C(=O)N[C@@H]2C(=O)N[C@H](C(C)C)C(=O)N3CCC[C@H]3C(=O)N(C)CC(=O)N(C)[C@@H](C(C)C)C(=O)O[C@@H]2C)c(N)c1=O [Actinomycin D] (I: T[dV]P[Sar][NMeV] / II: T[dV]P[Sar][NMeV]; ester I:1-I:C, II:1-II:C; linker I:N-II:N via Actinocin(9to1)) | 4 | 0.084 (≈ 0.0669 µM) | 0.021 (≈ 0.0167 µM) | – | – | – | – |
| COc1cccc2c1C(=O)c1c(O)c3c(c(O)c1C2=O)C[C@@](O)(C(=O)CO)C[C@@H]3O[C@H]1C[C@H](N)[C@H](O)[C@H](C)O1 [Adriamycin] | 8 | – | – | 5.6 (≈ 10.3 µM) | 0.7 (≈ 1.29 µM) | – | – |
| COc1cccc2c1C(=O)c1c(O)c3c(c(O)c1C2=O)C[C@@](O)(C(C)=O)C[C@@H]3O[C@H]1C[C@H](N)[C@H](O)[C@H](C)O1 [Daunomycin] | 4 | – | – | 2.8 (≈ 5.31 µM) | 0.7 (≈ 1.33 µM) | – | – |
| CO[C@H]1/C=C/O[C@@]2(C)Oc3c(C)c(O)c4c(c3C2=O)C(=O)C=C(NC(=O)/C(C)=C\C=C\[C@H](C)[C@H](O)[C@@H](C)[C@@H](O)[C@@H](C)[C@H](OC(C)=O)[C@@H]1C)C4=O [Rifamycin S] | < 0.05 | – | – | – | – | < 0.0045 | 0.09 |
| Acrasinomycin | 4 | – | – | – | – | 0.68 | 0.17 |
| Halomicin B | < 0.05 | – | – | – | – | < 0.0045 | 0.09 |
